The subject of series [1] is mouse brain. As to the kind of experiment: Comparative uptake and incorporation of halogenated amino acids in mouse brain (40 min after i.v. injection). It counts as in vivo. The procedure:
(§1) Typically, 0.75 to 1.5 MBq of L-2-[^18 F]-fluorotyrosine in 50 to 100 μl of isotonic solution were injected into the tail vein of NMRI mice.
(§2) After a defined incubation time, the animals were sacrificed and the brains were removed within 20 s and frozen in liquid nitrogen. Parts of the frontal cortex were removed (about 20 mg), weighed, homogenized in distilled water by ultrasonic treatment and, after 10 s, trichloroacetic acid (TCA) was added (final concentration >10%). The protein fraction precipitated by TCA was spun down and washed 2× with TCA solution, and the radioactivity in the combined supernatants and in the protein pellet was measured.
(§3) Results of comparative experiments on the incorporation of halogenated amino acids in mouse brain (40 min after i.v. injection) are compiled in the table which follows: […]

Assay in series [2]: as above
The series is classed as in vivo. As to conditions: mouse, in vivo, iv. The procedure:
as §1, §2, §3

The test system of series [3] is cerebral proteins (frontal cortex). As to the kind of experiment: Fraction of radioactivity incorporated in cerebral proteins (TCA precipitation, frontal cortex) after tail vein injection. The series is classed as in vivo, NMRI mice. The procedure:
as §1, §2

For a further series, the system named is brain tissue. As to the kind of experiment: HPLC investigation of TCA supernatant for free 2-[^18 F]-fluorotyrosine in brain tissue. It counts as in vivo, NMRI mice. To be noted: for proportion of free (unmetabolized) 2-fluorotyrosine of the total tissue activity: brain tissue supernatant, HPLC; for recovery of the activity: free plus protein-incorporated. The procedure: as §1, §2
The supernatant was investigated by HPLC (for conditions, see Example 1) for the proportion of free 2-[^18 F]-fluorotyrosine. It emerged from this that the activity not incorporated in proteins was present almost entirely as unmetabolized 2-fluorotyrosine.

In another series the test system is tissue. As to the kind of experiment: Distribution of radioactivity and metabolite analysis in tissue up to two hours after injection. The series is classed as in vivo. From the text: (§4) Appropriate analysis in the striatum, the area of the brain which is highly permeated by dopaminergic nerve cells, has also ruled out the formation of catecholamines from 2-fluorotyrosine. Thus 2-[^18 F]-fluorotyrosine is an ideal tracer for the quantification of the rate of protein synthesis using a three-compartment model, which is relatively easy to handle mathematically and as is used for 2-[^18 F]-fluorodeoxyglucose in PET studies. The uptake of >1.6% of the injected dose per gram of tissue (see table below) is, moreover, adequate for PET investigations.

Another series relates to striatum. The experiment in a line: Analysis for catecholamine formation in the striatum. The series is classed as in vivo.
Text: as §4

Series [4] concerns cerebral protein synthesis. As to conditions: Coenen et al., cited from earlier work.
For series [5], the system named is mouse brain. As to conditions: 40 min, footnote * Literature data; cited from earlier work.
[6] abbreviates: mouse brain, 40 min after i.v. injection.
Where [7] appears, read: mouse brain, 40 min after i.v. injection, read-out: Uptake.

Each structure is given as a SMILES string. Read-outs that look alike come from different tables or passages of the source. Where only a bound is given, the exact number is not on record here.

On to `NC(Cc1ccccc1[18F])C(=O)O` (stereo not shown) [2 - ^18 FPhe], for which, in the series with mouse brain [1] (mouse, in vivo, iv), the Incorporation was 11 ± 2 % of cerebral activity. For the same compound, the tissue uptake at 40 min in series [2] stood at 2 ± 0.4 %ID/g.

Consider `N[C@@H](Cc1ccc(O)cc1[18F])C(=O)O` [2 - ^18 FTyr, 2-[^18 F]-fluorotyrosine], for which the “fraction incorporated in cerebral proteins” value in series [3] (20 min after injection) was determined as 44±3%; in series [3] (60 min after injection), 84%. The “incorporation in cerebral proteins (in words)” value in series [3] (>1 h after the injection) was “almost quantitative”. Besides, the “proportion of free (unmetabolized) 2-fluorotyrosine of the total tissue activity” value is listed as 51±3% with brain tissue (20 min) and 11±2% with brain tissue (60 min). Moreover, the “recovery of the activity” value in the series on brain tissue (20 min) is 95±6%; in the series with brain tissue (60 min) it was 95±4%. For the same compound, the “chemical form of the activity in brain tissue” value in the series with brain tissue (HPLC of supernatant) is on record as “present in brain tissue virtually only in two chemical forms”. Moreover, the “influence from redistributed labeled metabolites from the blood” value with tissue (in vivo) was “can be ruled out”. Moreover, the “distribution of radioactivity in tissue” value in the series with tissue (up to two hours after injection) is “distributed only over the free fluorinated amino acid and the portion incorporated in protein”. Besides, in the series with mouse brain [1] (after 40 min), the “cerebral incorporation rate (in words)” value is “comparable to that for the natural amino acids methionine and phenylalanine”. Besides, in the series on mouse brain [1] (setting [6]), the Incorporation was 62 ± 3 % of cerebral activity. Also, the tissue uptake at 40 min is 1.3 ± 0.005 %ID/g in series [2] (setting [7]) and greater than 1.6 %ID/g in series [2] (refers to table, read-out: uptake of the injected dose per gram of tissue). Besides, in the series with striatum, the formation of catecholamines entry is “ruled out”.

In the case of `NC(Cc1ccccc1[75Br])C(=O)O` (stereo not shown) [2 - ^75 BrPhe], the Incorporation in the series on mouse brain [1] (mouse, in vivo, iv) is recorded as 15 ± 1 % of cerebral activity. The same compound gave a tissue uptake at 40 min in series [2] of 2.4 ± 0.4 %ID/g.

`N[C@@H](Cc1ccc(O)c(F)c1)C(=O)O` [3 - ^18 FTyr, 3-fluorotyrosine]: the Incorporation in the series on mouse brain [1] (setting [6]) is 26 ± 1 % of cerebral activity. Moreover, the tissue uptake at 40 min in series [2] (setting [7]) is 0.8 ± 0.005 %ID/g.

As for `C[C@](N)(Cc1ccc(O)c([123I])c1)C(=O)O` [3 - ^123 I-α-MeTyr, 3-iodo-α-methyltyrosine], in the series with mouse brain [1] (mouse, in vivo, iv), the Incorporation was 18 ± 1 % of cerebral activity. The compound further displayed a tissue uptake at 40 min in series [2] of 0.8 ± 0.1 %ID/g.

Take `NC(Cc1ccc(O)c([123I])c1)C(=O)O` (stereo not shown) [3 - ^123 ITyr]: the Incorporation in the series on mouse brain [1] (mouse, in vivo, iv) is given as 13 ± 4 % of cerebral activity. The tissue uptake at 40 min in series [2] turned out to be 0.2 ± 0.005 %ID/g.

`NC(Cc1ccc([18F])cc1)C(=O)O` (stereo not shown) [4 - ^18 FPhe, p-[^18 F]-fluorophenylalanine]: the “incorporation rate in cerebral protein (in words)” value in series [4] is given as “relatively low”. In addition, in series [4] (animal model), the “radioactivity in cerebral tissue assigned to an unidentified metabolite pool” value is listed as “about 20%”. Moreover, in the series with mouse brain [1] (mouse, in vivo, iv), the Incorporation is 20 ± 2 % of cerebral activity. The tissue uptake at 40 min in series [2] was determined as 1.5 ± 0.3 %ID/g.

On to `NC(Cc1ccc([75Br])cc1)C(=O)O` (stereo not shown) [4 - ^75 BrPhe], for which, in the series on mouse brain [1] (setting [6]), the Incorporation is recorded as 17 ± 5 % of cerebral activity. For the same compound, in series [2] (setting [7]), the tissue uptake at 40 min amounted to 2 ± 0.4 %ID/g.

Take `CC(C)C[C@H](N)C(=O)O` [^14 C-Leu, leucine]: the Incorporation with mouse brain [5] is given as 85 ± 4 % of cerebral activity.

As for `CSCC[C@H](N)C(=O)O` [^14 C-Met, methionine], the Incorporation in the series on mouse brain [1] (mouse, in vivo, iv) was 57 ± 3 % of cerebral activity.

Consider `N[C@@H](Cc1ccccc1)C(=O)O` [^14 C-Phe, phenylalanine], for which the Incorporation in the series with mouse brain [1] (setting [6]) is 63 ± 2 % of cerebral activity.

Values taken from patent US4925651A, “Radiofluoro-tyrosine derivatives, the preparation and use thereof” (priority 1988, dated 1990).
